pKd: −log10 of the molar value.
Key:
[1] = target: Galectin-3 (Homo sapiens, UniProt P17931); experiment: (§1) Fluorescence Anisotropy Assay: Compounds for galectins were determined by a fluorescence anisotropy assay where the compound was used as an inhibitor of the interaction between galectin and a fluorescein tagged saccharide probe.
[2] = target: Galectin-1 (Homo sapiens, UniProt P09382); experiment: as §1
Chain of Galectin-1 (P09382 whole entry): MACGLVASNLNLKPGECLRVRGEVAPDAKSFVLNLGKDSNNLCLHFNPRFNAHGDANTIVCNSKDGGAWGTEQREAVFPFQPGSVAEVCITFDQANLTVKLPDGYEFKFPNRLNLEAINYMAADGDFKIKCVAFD

Chain of Galectin-3 (P17931 whole entry): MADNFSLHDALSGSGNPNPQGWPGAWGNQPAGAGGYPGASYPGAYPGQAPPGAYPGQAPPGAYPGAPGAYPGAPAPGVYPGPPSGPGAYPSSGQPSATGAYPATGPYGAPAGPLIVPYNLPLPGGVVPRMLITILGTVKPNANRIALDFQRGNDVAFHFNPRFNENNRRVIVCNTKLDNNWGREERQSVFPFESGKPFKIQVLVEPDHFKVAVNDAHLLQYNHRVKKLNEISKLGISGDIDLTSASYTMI

## OCC1O[C@H](Sc2cc(Cl)c(F)c(Cl)c2)C(O)[C@@H](n2cc(-c3nccs3)nn2)[C@H]1O (some centres not stated)
[1]
  pKd: 5.00
[2]
  pKd: 6.55
